Results: US12122761B2, “2-azaspiro[3.4]octane derivatives as M4 agonists” (NOVARTIS AG, priority 2019, dated 2024)

Target: T1, Cloned human M1 receptor (CHRM1) stably expressed in HEK293 cells (Homo sapiens, UniProt P11229)
T1 construct: expressed in transfected cells; host or cells: HEK293
T1 sequence (P11229 1-460): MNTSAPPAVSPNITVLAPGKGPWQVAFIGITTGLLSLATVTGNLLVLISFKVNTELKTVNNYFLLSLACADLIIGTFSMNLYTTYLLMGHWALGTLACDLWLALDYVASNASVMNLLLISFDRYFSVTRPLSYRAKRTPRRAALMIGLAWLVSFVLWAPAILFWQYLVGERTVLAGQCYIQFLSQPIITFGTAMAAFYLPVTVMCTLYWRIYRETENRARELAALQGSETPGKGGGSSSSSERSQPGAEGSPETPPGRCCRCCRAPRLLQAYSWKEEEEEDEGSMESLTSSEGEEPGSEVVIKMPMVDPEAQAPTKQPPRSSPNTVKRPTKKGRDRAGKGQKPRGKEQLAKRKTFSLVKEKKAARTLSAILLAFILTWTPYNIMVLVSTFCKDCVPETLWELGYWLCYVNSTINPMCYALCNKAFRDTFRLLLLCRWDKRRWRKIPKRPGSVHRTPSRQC
Experiment: CHRM1 Ca++ Flux Assay (agonist mode, FDSS 7000EX)
Format: cell-based
Details: for Emax: HEK293, Percent Activity, read-out: M1 FDSS PA; for EC50: geometric mean if tested more than once
How it was run: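 Compounds tested as agonists at 11 concentrations in triplicate, with calcium traces captured over 3 minutes. Cells were HEK293 with stable human CHRM1 expression, plated overnight at 25K/well and loaded with calcium dye. Responses normalized to carbachol EC100 and fitted by four-parameter nonlinear regression.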

Fc1ccc(C2CCOC2)c(C2CCN([C@@H]3CCC4(C3)CN(c3nnco3)C4)CC2)c1 (mixture of isomers) [Example 2J, 2-((6R)-6-(4-(5-fluoro-2-(tetrahydrofuran-3-yl)phenyl)piperidin-1-yl)-2-azaspiro[3.4]octan-2-yl)-1,3,4-oxadiazole]
Emax: 97%
EC50: 46 nM

O=C(C1COC1)N1CC2(CC[C@H](N3CCC(c4ccccc4OC(F)(F)F)CC3)C2)C1 (single isomer, unassigned) [Example 8G]
Emax: 0%
EC50: > 25000 nM

O=C(N1CC2(CC[C@H](N3CCC(c4ccccc4C4CCOCC4)CC3)C2)C1)C1(F)CC1 (single isomer, unassigned) [Example 9M]
Emax: 0%
EC50: 6440 nM

c1ccc(C2CCN([C@H]3CCC4(C3)CN(c3nnco3)C4)CC2)c(C2CCOCC2)c1 (single isomer, unassigned) [Example 10T]
Emax: 21%
EC50: 3920 nM

c1ccc(C2CCN([C@@H]3CCC4(C3)CN(c3nnco3)C4)CC2)c(OC2CC3(COC3)C2)c1 [Example 1A, (R)-2-(6-(4-(2-((2-oxaspiro[3.3]heptan-6-yl)oxy)phenyl)piperidin-1-yl)-2-azaspiro[3.4]octan-2-yl)-1,3,4-oxadiazole]
Emax: 63%
EC50: 237 nM

c1ccc(C2CCN([C@@H]3CCC4(C3)CN(c3nnco3)C4)CC2)c(OC2COC2)c1 [Example 1D, (R)-2-(6-(4-(2-(oxetan-3-yloxy)phenyl)piperidin-1-yl)-2-azaspiro[3.4]octan-2-yl)-1,3,4-oxadiazole]
Emax: 89%
EC50: 19 nM

c1ccc(C2CCN([C@@H]3CCC4(C3)CN(c3nnco3)C4)CC2)c(OC[C@@H]2COCCO2)c1 [Example 1E, 2-((R)-6-(4-(2-(((S)-1,4-dioxan-2-yl)methoxy)phenyl)piperidin-1-yl)-2-azaspiro[3.4]octan-2-yl)-1,3,4-oxadiazole]
Emax: 85%
EC50: 57 nM

CC(C)(O)CCOc1ccccc1C1CCN([C@@H]2CCC3(C2)CN(c2nnco2)C3)CC1 [Example 1F]
Emax: 79%
EC50: 31 nM

c1ccc(C2CCN([C@@H]3CCC4(C3)CN(c3nncs3)C4)CC2)c(OCC2COC2)c1 [Example 1G, (R)-2-(6-(4-(2-(oxetan-3-ylmethoxy)phenyl)piperidin-1-yl)-2-azaspiro[3.4]octan-2-yl)-1,3,4-thiadiazole]
Emax: 80%
EC50: 72 nM

FC1(COc2ccccc2C2CCN([C@@H]3CCC4(C3)CN(c3nncs3)C4)CC2)COC1 [Example 1H, (R)-2-(6-(4-(2-((3-fluorooxetan-3-yl)methoxy)phenyl)piperidin-1-yl)-2-azaspiro[3.4]octan-2-yl)-1,3,4-thiadiazole]
Emax: 88%
EC50: 48 nM

c1ccc(C2CCN([C@@H]3CCC4(C3)CN(c3nncs3)C4)CC2)c(OCC2CCOCC2)c1 [Example 1I, (R)-2-(6-(4-(2-((tetrahydro-2H-pyran-4-yl)methoxy)phenyl)piperidin-1-yl)-2-azaspiro[3.4]octan-2-yl)-1,3,4-thiadiazole]
Emax: 55%
EC50: 616 nM

FC1(COc2ccccc2C2CCN([C@@H]3CCC4(C3)CN(c3nncs3)C4)CC2)CCOCC1 [Example 1J, (R)-2-(6-(4-(2-((4-fluorotetrahydro-2H-pyran-4-yl)methoxy)phenyl)piperidin-1-yl)-2-azaspiro[3.4]octan-2-yl)-1,3,4-thiadiazole]
Emax: 78%
EC50: 182 nM

c1ccc(C2CCN([C@@H]3CCC4(C3)CN(c3cncnc3)C4)CC2)c(OC2COC2)c1 [Example 1K, (R)-6-(4-(2-(oxetan-3-yloxy)phenyl)piperidin-1-yl)-2-(pyrimidin-5-yl)-2-azaspiro[3.4]octane]
Emax: 85%
EC50: 24 nM

c1ccc(C2CCN([C@@H]3CCC4(C3)CN(c3cncnc3)C4)CC2)c(OC2CCOCC2)c1 [Example 1L, (R)-2-(pyrimidin-5-yl)-6-(4-(2-((tetrahydro-2H-pyran-4-yl)oxy)phenyl)piperidin-1-yl)-2-azaspiro[3.4]octane]
Emax: 42%
EC50: 166 nM

c1ccc(C2CCN([C@@H]3CCC4(C3)CN(c3cncnc3)C4)CC2)c(OCC2CCOCC2)c1 [Example 1M, (R)-2-(pyrimidin-5-yl)-6-(4-(2-((tetrahydro-2H-pyran-4-yl)methoxy)phenyl)piperidin-1-yl)-2-azaspiro[3.4]octane]
Emax: 11%
EC50: 1550 nM

c1ccc(C2CCN([C@@H]3CCC4(C3)CN(c3cncnc3)C4)CC2)c(OCC2COC2)c1 [Example 1N, (R)-6-(4-(2-(oxetan-3-ylmethoxy)phenyl)piperidin-1-yl)-2-(pyrimidin-5-yl)-2-azaspiro[3.4]octane]
Emax: 70%
EC50: 69 nM

c1ccc(C2CCN([C@@H]3CCC4(C3)CN(c3cncnc3)C4)CC2)c(OC2CC3(COC3)C2)c1 [Example 1O, (R)-6-(4-(2-((2-oxaspiro[3.3]heptan-6-yl)oxy)phenyl)piperidin-1-yl)-2-(pyrimidin-5-yl)-2-azaspiro[3.4]octane]
Emax: 0%
EC50: > 25000 nM

c1ccc(C2CCN([C@@H]3CCC4(C3)CN(c3cncnc3)C4)CC2)c(O[C@@H]2CCOC2)c1 [Example 1P, (R)-2-(pyrimidin-5-yl)-6-(4-(2-(((R)-tetrahydrofuran-3-yl)oxy)phenyl)piperidin-1-yl)-2-azaspiro[3.4]octane]
Emax: 43%
EC50: 98 nM

CC(C)(O)COc1ccccc1C1CCN([C@@H]2CCC3(C2)CN(c2nnco2)C3)CC1 [Example 2A, (R)-1-(2-(1-(2-(1,3,4-oxadiazol-2-yl)-2-azaspiro[3.4]octan-6-yl)piperidin-4-yl)phenoxy)-2-methylpropan-2-ol]
Emax: 74%
EC50: 147 nM

c1ccc(C2CCN([C@@H]3CCC4(C3)CN(c3nnco3)C4)CC2)c(O[C@@H]2CCOC2)c1 [Example 2B, 2-((R)-6-(4-(2-(((R)-tetrahydrofuran-3-yl)oxy)phenyl)piperidin-1-yl)-2-azaspiro[3.4]octan-2-yl)-1,3,4-oxadiazole]
Emax: 107%
EC50: 36 nM

COCCOc1ccccc1C1CCN([C@@H]2CCC3(C2)CN(c2nnco2)C3)CC1 [Example 2C]
Emax: 79%
EC50: 59 nM

FC1(COc2ccccc2C2CCN([C@@H]3CCC4(C3)CN(c3nnco3)C4)CC2)CCOCC1 [Example 2D, (R)-2-(6-(4-(2-((4-fluorotetrahydro-2H-pyran-4-yl)methoxy)phenyl)piperidin-1-yl)-2-azaspiro[3.4]octan-2-yl)-1,3,4-oxadiazole]
Emax: 82%
EC50: 141 nM

CC1(COc2ccccc2C2CCN([C@@H]3CCC4(C3)CN(c3nnco3)C4)CC2)CCOCC1 [Example 2E, (R)-2-(6-(4-(2-((4-methyltetrahydro-2H-pyran-4-yl)methoxy)phenyl)piperidin-1-yl)-2-azaspiro[3.4]octan-2-yl)-1,3,4-oxadiazole]
Emax: 78%
EC50: 381 nM

c1ccc(C2CCN([C@@H]3CCC4(C3)CN(c3nnco3)C4)CC2)c(OC2CCOCC2)c1 [Example 2F, (R)-2-(6-(4-(2-((tetrahydro-2H-pyran-4-yl)oxy)phenyl)piperidin-1-yl)-2-azaspiro[3.4]octan-2-yl)-1,3,4-oxadiazole]
Emax: 112%
EC50: 277 nM

c1ccc(C2CCN([C@@H]3CCC4(C3)CN(c3nnco3)C4)CC2)c(OCC2CCOCC2)c1 [Example 2G, (R)-2-(6-(4-(2-((tetrahydro-2H-pyran-4-yl)methoxy)phenyl)piperidin-1-yl)-2-azaspiro[3.4]octan-2-yl)-1,3,4-oxadiazole]
Emax: 51%
EC50: 429 nM

c1ccc(C2CCN([C@@H]3CCC4(C3)CN(c3nnco3)C4)CC2)c(C2CCOCC2)c1 [Example 2H, (R)-2-(6-(4-(2-(tetrahydro-2H-pyran-4-yl)phenyl)piperidin-1-yl)-2-azaspiro[3.4]octan-2-yl)-1,3,4-oxadiazole]
Emax: 61%
EC50: 178 nM

Fc1ccc(C2CCOCC2)c(C2CCN([C@@H]3CCC4(C3)CN(c3nnco3)C4)CC2)c1 [Example 2I, (R)-2-(6-(4-(5-fluoro-2-(tetrahydro-2H-pyran-4-yl)phenyl)piperidin-1-yl)-2-azaspiro[3.4]octan-2-yl)-1,3,4-oxadiazole]
Emax: 89%
EC50: 106 nM

c1ccc(C2CCOC2)c(C2CCN([C@@H]3CCC4(C3)CN(c3nnco3)C4)CC2)c1 (stereo partly drawn) [Example 2K, 2-((6R)-6-(4-(2-(tetrahydrofuran-3-yl)phenyl)piperidin-1-yl)-2-azaspiro[3.4]octan-2-yl)-1,3,4-oxadiazole]
Emax: 97%
EC50: 133 nM

c1ccc(C2CCN([C@@H]3CCC4(C3)CN(c3nnco3)C4)CC2)c(CC2CCOCC2)c1 [Example 2L, (R)-2-(6-(4-(2-((tetrahydro-2H-pyran-4-yl)methyl)phenyl)piperidin-1-yl)-2-azaspiro[3.4]octan-2-yl)-1,3,4-oxadiazole]
Emax: 69%
EC50: 540 nM

c1ccc(C2CCN([C@@H]3CCC4(C3)CN(c3nnco3)C4)CC2)c(-c2ncco2)c1 [Example 2M, (R)-2-(6-(4-(2-(oxazol-2-yl)phenyl)piperidin-1-yl)-2-azaspiro[3.4]octan-2-yl)-1,3,4-oxadiazole]
Emax: 99%
EC50: 93 nM
